{"source": "patent US20210251237A1", "about": "“PLATFORM FOR DEVELOPING SOIL-BORNE PLANT PATHOGEN INHIBITING MICROBIAL CONSORTIA” (priority 2018, published 2021)", "key": {"[1]": {"system": "Phytophthora sojae", "experiment": "Pathogen suppressive activity plate assay (zone of inhibition)", "type": "cell-based"}, "[2]": {"system": "Fusarium oxysporum", "experiment": "Pathogen suppressive activity plate assay (zone of inhibition)", "type": "cell-based", "conditions": "for zone of inhibition: Table 1; for mean inhibitory zone size: Table 4"}, "[3]": {"system": "clinical antimicrobials (antibiotic discs)", "experiment": "Antibiotic disc resistance/susceptibility assay of microbial isolates", "type": "cell-based"}, "[4]": {"system": "F. culmorum", "experiment": "Pathogen suppressive activity plate assay (zone of inhibition)", "type": "cell-based", "conditions": "Table 1; pathogen isolate P61"}, "[5]": {"system": "Fusarium virguliforme", "experiment": "Pathogen suppressive activity plate assay (zone of inhibition)", "type": "cell-based", "conditions": "Table 4"}, "[6]": {"system": "Pythium ultimum var. sporangiferum", "experiment": "Pathogen suppressive activity plate assay (zone of inhibition)", "type": "cell-based"}, "[7]": {"system": "Phytophthora sojae", "experiment": "Phytophthora sojae control on soybean, growth chamber", "type": "in vivo", "conditions": "growth chamber trials"}, "[8]": {"system": "Phytophthora medicaginis", "experiment": "Pathogen suppressive activity plate assay (zone of inhibition)", "type": "cell-based", "conditions": "for zone of inhibition: Table 1; for mean inhibitory zone size: Table 4"}, "[9]": {"system": "Rhizoctonia solani", "experiment": "Pathogen suppressive activity plate assay (zone of inhibition)", "type": "cell-based", "conditions": "for mean inhibitory zone size: Table 4"}, "[10]": {"system": "Fusarium graminearum", "type": "cell-based", "conditions": "for zone of inhibition: Table 1; for mean inhibitory zone size: Table 4"}, "[11]": {"system": "Phytophthora medicaginis", "experiment": "Phytophthora medicaginis control on alfalfa, greenhouse", "type": "in vivo", "conditions": "field soil naturally infested, 28 days, inoculated vs non-inoculated", "excerpt": "FIG. 7A-B. Inoculant included in this figure: GS1. FIG. 7A depicts the severity of disease on […]. The present figure was constructed utilizing methods from Example 9(F)(iii). […] Briefly, soils were inoculated with a liquid spore suspension of a single Streptomyces isolate at planting. Alfalfa seeds were planted into field soil that was naturally-infested with the pathogen Phytophthora medicaginis. After 28 days, plants were harvested for disease and biomass assessments.\nInoculum was prepared as described above, and used to inoculate seeds planted in field soil placed in sterile tins. Inoculation occurred immediately after planting. […] GS1 was thus shown to promote plant growth."}, "[12]": {"system": "potato scab", "experiment": "Potato field trials: percent scab control", "type": "in vivo", "set-up": "concentration or dose not given beside the values"}, "[13]": {"system": "soybean", "experiment": "Plant growth promotion, greenhouse (FIG. 27)", "type": "in vivo", "experimental": "(§1) Wheat, alfalfa, corn, and soybean plants were evaluated for the growth response to microbial inoculants in growth chamber and greenhouse conditions. For each crop, containers (6.5 cm diameter x 25 cm long) were filled with steamed (sterile) greenhouse soil mix (500 ml) and planted with two (corn, soy, wheat) or three (alfalfa) seeds. Crop varieties were: SOY: AG 0832; CORN: Viking, WHEAT: Prosper, ALFALFA: Saranac. Seeds were inoculated with microbial isolates from the enriched microbial library immediately after planting (2 ml of water agar containing the inoculant per seed, 1×10^11 cells inoculant/ml). Control plants were allowed to grow without the microbial inoculants Plants were grown in the greenhouse and harvested at 3 weeks (corn), 4 weeks (wheat), 4.5 weeks (soybean) and 5 weeks (alfalfa). At harvest, the roots were carefully washed, and above- and belowground fresh weights were recorded (g). Plants were subsequently placed in paper bags and maintained in the 95° F. drying oven for 3 days, after which dry weights were also recorded. Plant weights were compared between inoculated and non-inoculated treatments.\n(§2) For each crop (wheat, alfalfa, soybean, corn), a container (6.5 cm dia×25 cm long; approximately 500 cc of soil) was filled with steamed (sterile) greenhouse soil mix and planted with two of each seed (corn, soy, wheat) or three seeds (alfalfa) at a 0.5 inch depth. Crop varieties were: SOY: AG 0832; CORN: Viking, WHEAT: Prosper, ALFALFA: Saranac. Wheat, soybean and corn seeds (but not alfalfa) were surface sterilized before planting. Seeds were not treated with any fungicides or other chemicals. All crops were thinned to one seed per container following emergence. Ten replicate containers were planted for each inoculant and for the non-inoculated control.\n(§3) Streptomyces cultures GS1 and PS1 were grown for 7-10 days on plates containing oatmeal agar (OA), and collected in 20% glycerol stocks. Stocks were serially diluted and plated on water agar (WA) for quantification. Stocks were then diluted to approximately 1×10^11 colony-forming units per ml.\n(§4) For each inoculant, 2 ml of stock was distributed over the seeds at planting. Seeds and containers were watered when needed. Plants were incubated in the greenhouse and harvested at 3 weeks (corn), 4 weeks (wheat), 4.5 weeks (soybean) and 5 weeks (alfalfa). No additional nitrogen was added. At harvest for each crop, the roots were carefully washed, and above- and belowground fresh weights were recorded (g). Plants were subsequently placed in paper bags and maintained in the 95° F. drying oven for 3 days, after which dry weights were also recorded. Plant weights were compared between inoculated and non-inoculated treatments."}, "[14]": {"system": "alfalfa", "experiment": "Plant growth promotion, greenhouse (FIG. 27)", "type": "in vivo", "experimental": "as §1, §2, §3, §4"}, "[15]": {"system": "wheat", "experiment": "Plant growth promotion, greenhouse (FIG. 27)", "type": "in vivo", "experimental": "as §1, §2, §3, §4"}, "[16]": {"system": "Wheat, alfalfa, corn, and soybean plants", "experiment": "Plant growth promotion, greenhouse (FIG. 27)", "type": "in vivo", "conditions": "plant biomass", "experimental": "as §1, §2, §3, §4"}, "[17]": {"system": "corn", "experiment": "Plant growth promotion, greenhouse (FIG. 27)", "type": "in vivo", "experimental": "as §1, §2, §3, §4"}, "[18]": {"system": "Sclerotinia sclerotiorum", "experiment": "Pathogen suppressive activity plate assay (zone of inhibition)", "type": "cell-based", "conditions": "for mean inhibitory zone size: Table 4"}}, "note": "“Also recorded” adds a separate entry of the source. Where two headings read alike, the source gives them in different places.", "data": [{"substance": "Streptomyces lydicus [GS1]", "values": [{"measurement": "inhibition of pathogen (in words)", "setting": "[1]; P52 isolate of Phytophthora sojae", "value": "does not"}, {"measurement": "zone of inhibition", "setting": "[1]; Table 1, pathogen isolate P52", "value": 0, "unit": "mm"}, {"measurement": "mean inhibitory zone size", "setting": "[1]; Table 4, pathogen target isolate P52", "value": 0, "unit": "mm"}, {"measurement": "zone of inhibition", "setting": "[2]; pathogen isolate P27", "value": 0, "unit": "mm"}, {"measurement": "zone of inhibition", "setting": "[2]; pathogen isolate P29", "value": 0, "unit": "mm"}, {"measurement": "mean inhibitory zone size", "setting": "[2]; pathogen target isolate P25", "value": 2.15, "unit": "mm"}, {"measurement": "mean inhibitory zone size", "setting": "[2]; pathogen target isolate P26", "value": 9.38, "unit": "mm"}, {"measurement": "mean inhibitory zone size", "setting": "[2]; pathogen target isolate P28", "value": 0, "unit": "mm"}, {"measurement": "mean inhibitory zone size", "setting": "[2]; pathogen target isolate P29", "value": 0, "unit": "mm"}, {"measurement": "Antibiotic resistance characteristics", "setting": "[3]; Amoxicillin Clavulanate", "value": "R (R-resistant (0 inhibition zone))"}, {"measurement": "Antibiotic resistance characteristics", "setting": "[3]; Chloramphenicol", "value": "R (R-resistant (0 inhibition zone))"}, {"measurement": "Antibiotic resistance characteristics", "setting": "[3]; Erythromycin", "value": "S (S-susceptible (>10 mm))"}, {"measurement": "Antibiotic resistance characteristics", "setting": "[3]; Kanamycin", "value": "S (S-susceptible (>10 mm))"}, {"measurement": "Antibiotic resistance characteristics", "setting": "[3]; Novobiocin 5", "value": "MS (MS-moderately susceptible (6-10 mm))"}, {"measurement": "Antibiotic resistance characteristics", "setting": "[3]; Novobiocin 30", "value": "MS (MS-moderately susceptible (6-10 mm))"}, {"measurement": "Antibiotic resistance characteristics", "setting": "[3]; Penicillin", "value": "R (R-resistant (0 inhibition zone))"}, {"measurement": "Antibiotic resistance characteristics", "setting": "[3]; Rifampin", "value": "R (R-resistant (0 inhibition zone))"}, {"measurement": "Antibiotic resistance characteristics", "setting": "[3]; Streptomycin", "value": "S (S-susceptible (>10 mm))"}, {"measurement": "Antibiotic resistance characteristics", "setting": "[3]; Tetracycline", "value": "R (R-resistant (0 inhibition zone))"}, {"measurement": "Antibiotic resistance characteristics", "setting": "[3]; Vancomycin 5", "value": "MS (MS-moderately susceptible (6-10 mm))"}, {"measurement": "Antibiotic resistance characteristics", "setting": "[3]; Vancomycin 30", "value": "MS (MS-moderately susceptible (6-10 mm))"}, {"measurement": "zone of inhibition", "setting": "[4]", "value": 4.68, "unit": "mm"}, {"measurement": "mean inhibitory zone size", "setting": "[5]; pathogen target isolate P20", "value": 0, "unit": "mm"}, {"measurement": "mean inhibitory zone size", "setting": "[5]; pathogen target isolate P21", "value": 1.3, "unit": "mm"}, {"measurement": "mean inhibitory zone size", "setting": "[5]; pathogen target isolate P22", "value": 0, "unit": "mm"}, {"measurement": "mean inhibitory zone size", "setting": "[5]; pathogen target isolate P23", "value": 0, "unit": "mm"}, {"measurement": "zone of inhibition", "setting": "[6]; Table 1, pathogen isolate P58", "value": 9.95, "unit": "mm"}, {"measurement": "mean inhibitory zone size", "setting": "[6]; Table 4, pathogen target isolate P58", "value": 9.95, "unit": "mm"}, {"measurement": "reduction of disease severity", "setting": "[7]; soil infested with P. sojae", "value": 93, "unit": "%"}, {"measurement": "percent healthy plants", "setting": "[7]; FIG. 7A", "value": "increased"}, {"measurement": "zone of inhibition", "setting": "[8]; pathogen isolate P43", "value": 4.53, "unit": "mm"}, {"measurement": "zone of inhibition", "setting": "[8]; pathogen isolate P44", "value": 10.45, "unit": "mm"}, {"measurement": "mean inhibitory zone size", "setting": "[8]; pathogen target isolate P43", "value": 4.53, "unit": "mm"}, {"measurement": "mean inhibitory zone size", "setting": "[8]; pathogen target isolate P44", "value": 10.45, "unit": "mm"}, {"measurement": "inhibition of pathogen (in words)", "setting": "[9]; P6 isolate of Rhizoctonia solani", "value": "inhibits"}, {"measurement": "zone of inhibition", "setting": "[9]; Table 1, pathogen isolate P6", "value": 9.15, "unit": "mm"}, {"measurement": "mean inhibitory zone size", "setting": "[9]; pathogen target isolate P5", "value": 8.95, "unit": "mm"}, {"measurement": "mean inhibitory zone size", "setting": "[9]; pathogen target isolate P6", "value": 9.15, "unit": "mm"}, {"measurement": "mean inhibitory zone size", "setting": "[9]; pathogen target isolate P12", "value": 9.78, "unit": "mm"}, {"measurement": "zone of inhibition", "setting": "[10]; pathogen isolate P31", "value": 8.63, "unit": "mm"}, {"measurement": "zone of inhibition", "setting": "[10]; pathogen isolate P34", "value": 16.28, "unit": "mm"}, {"measurement": "mean inhibitory zone size", "setting": "[10]; pathogen target isolate P30", "value": 14.58, "unit": "mm"}, {"measurement": "mean inhibitory zone size", "setting": "[10]; pathogen target isolate P31", "value": 8.63, "unit": "mm"}, {"measurement": "mean inhibitory zone size", "setting": "[10]; pathogen target isolate P32", "value": 11.5, "unit": "mm"}, {"measurement": "mean inhibitory zone size", "setting": "[10]; pathogen target isolate P33", "value": 13.13, "unit": "mm"}, {"measurement": "mean inhibitory zone size", "setting": "[10]; pathogen target isolate P34", "value": 16.28, "unit": "mm"}, {"measurement": "mean inhibitory zone size", "setting": "[10]; pathogen target isolate P35", "value": 11.03, "unit": "mm"}, {"measurement": "disease", "setting": "[11]", "value": "significantly reduced; also recorded: reduced disease"}, {"measurement": "plant biomass", "setting": "[11]", "value": "significantly increased; also recorded: significant increases"}, {"measurement": "Percent Control (reduction in scab severity vs non-inoculated plots)", "setting": "[12]; experiment BPP, disease on non-inoculated tubers 22.2", "value": 33, "unit": "%"}, {"measurement": "Percent Control (reduction in scab severity vs non-inoculated plots)", "setting": "[12]; experiment BSCR, disease on non-inoculated tubers 16.2", "value": 35, "unit": "%"}, {"measurement": "Percent Control (reduction in scab severity vs non-inoculated plots)", "setting": "[12]; experiment BSP, disease on non-inoculated tubers 24.3", "value": 42, "unit": "%"}, {"measurement": "Percent Control (reduction in scab severity vs non-inoculated plots)", "setting": "[12]; experiment BWP, disease on non-inoculated tubers 26.7", "value": 38, "unit": "%"}, {"measurement": "Percent Control (reduction in scab severity vs non-inoculated plots)", "setting": "[12]; experiment RPP, disease on non-inoculated tubers 15.6", "value": 37, "unit": "%"}, {"measurement": "Percent Control (reduction in scab severity vs non-inoculated plots)", "setting": "[12]; experiment RSP, disease on non-inoculated tubers 8.8", "value": 39, "unit": "%"}, {"measurement": "dry weight", "setting": "[13]", "value": "significant increases"}, {"measurement": "fresh and dry weights", "setting": "[14]", "value": "significant enhancements"}, {"measurement": "growth promotion", "setting": "[14]; FIG. 27", "value": "promote the growth"}, {"measurement": "fresh and dry weights", "setting": "[15]", "value": "not"}, {"measurement": "promotion of growth of inoculated vs non-inoculated plants", "setting": "[16]", "value": "statistically significant effect"}, {"measurement": "fresh and dry weights", "setting": "[17]", "value": "not"}, {"measurement": "zone of inhibition", "setting": "[18]; Table 1, pathogen isolate P19", "value": 8.63, "unit": "mm"}, {"measurement": "mean inhibitory zone size", "setting": "[18]; pathogen target isolate P17", "value": 16.8, "unit": "mm"}, {"measurement": "mean inhibitory zone size", "setting": "[18]; pathogen target isolate P18", "value": 12.8, "unit": "mm"}, {"measurement": "mean inhibitory zone size", "setting": "[18]; pathogen target isolate P19", "value": 8.63, "unit": "mm"}]}]}
